Patent publication US20110263822A1, “COMPOSITION FOR THE PROPHYLAXIS AND TREATMENT OF HBV INFECTIONS AND HBV-MEDIATED DISEASES” (Rhein Biotech Gesellschaft Fur Neue Biotechnologische …, priority 2003, published 2011)
Ends that are not written are not given here.

Biological target: MHC class I molecules K^b (Mus musculus, UniProt P01901)
Experiment: biochemical
Conditions: 48 hours at 18° C.; read-out: K^b-binding

MHC class I molecules K^b, sequence (P01901 whole entry, looked up): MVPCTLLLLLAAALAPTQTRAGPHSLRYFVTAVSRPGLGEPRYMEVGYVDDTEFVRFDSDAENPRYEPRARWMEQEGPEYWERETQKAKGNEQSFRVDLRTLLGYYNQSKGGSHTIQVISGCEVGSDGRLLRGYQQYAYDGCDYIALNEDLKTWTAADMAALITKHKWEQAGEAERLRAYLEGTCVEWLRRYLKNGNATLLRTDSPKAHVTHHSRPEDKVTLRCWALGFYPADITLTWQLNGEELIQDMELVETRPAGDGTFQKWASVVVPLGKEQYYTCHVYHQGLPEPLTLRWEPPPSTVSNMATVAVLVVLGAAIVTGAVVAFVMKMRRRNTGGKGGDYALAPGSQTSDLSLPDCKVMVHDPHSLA

**Q.** Which IC50 does the source give for IVSPFIPL [IVSPFIPL] here?
**A.** 773 nM
